What was measured:
[1] = production of 1O2 over the pH range; assay type: physicochemical; conditions: over the pH range used
[2] = tested on: the fungus cultivated in suspension; assay: binding of Sylsens B to the fungus cultivated in suspension / photodynamic effect with competing cations; assay type: cell-based, T. rubrum; conditions: in the presence of 5 mM CaCl2 at pH 5.2
Experimental: In the above experiments, deuteroporphyrin monomethylether (DP mme), an anionic porphyrin, was used as a control. […] The effect of calcium-ions was investigated by determining the photodynamic effect in the presence of 5 mM CaCl2 at pH 5.2. […] So, PDT may even be used to inactivate (kill) the growing fungus if measures are taken to prevent naturally present calcium from interfering with the treatment, in particular by using a chelating compound such as EDTA.

T. rubrum = assay: PDT of T. rubrum on human stratum corneum (ex-vivo model), fungicidal effect; assay type: cell-based, Trichophyton rubrum; conditions: for relative frequency of the fungicidal effect: read day 8; for MIC (Minimum Inhibitory Concentration): 2 h incubation in water, 1 h 30 mW/cm^2 red light
Experimental: A polycarbonate membrane filter, 25 mm in diameter and a pore size of 2 μm (Whatman, Breda, The Netherlands) was placed in the central part of a 3 cm culture dish (Greiner, Alphen aan den Rijn, The Netherlands) filled with 5 ml of Malt Extract Agar (MEA). A circular piece of human stratum corneum (SC) with a diameter of 1 cm was subsequently placed on the membrane filter and both were gently brushed with a paintbrush dipped in 70% ethanol. A microconidia suspension isolated from Trichphyton rubrum (CBS nr. 304.60 obtained from Centraal Bureau voor Schimmelcultures, Utrecht, The Netherlands, and prepared as described by Smijs G. M. T. et al (2004) in “Photodynamic treatment of the dermatophyte Trichophyton Rubrum and its microconidia with porphyrin sensitizers. PhotoChemistry and PhotoBiology, 80, 197 - 202”) was diluted to 1000 CFU/ml and 15 μl was inoculated on the circular sheet of human SC. The dish was placed in an incubator at 28° C. and at 17 hours after spore inoculation photodynamic treatment (PDT) was applied.
At 17 hours after spore inoculation, the membrane filter with SC containing spore inoculates was transported from the MEA dish to a 3 cm culture dish filled with 1035 μl incubation medium. The incubation medium contained 1 ml of distilled water with an adjusted pH (3.5, 4.5, 5.2, or 7.4) and 35 μl of a Sylsens B stock solution (Buchem, Apeldoorn, the Nederland) . To optimize the contact of the inoculates with the incubation medium, the membrane filter with the SC was turned upside down during the incubation period of 2 hours. The incubation was performed under continuous shaking conditions. Shortly before the illumination period the membrane filter containing the SC was turned back (surface SC now faces the lamp). In all cases, the illumination time was 1 hour using a red light irradiance of 30 mW/cm^2. This corresponds to a light dose of 108 J/cm^2. After the illumination the membrane filter with the SC were transported to a fresh MEA dish, placed in a 28° C. incubator and fungal growth was followed for several weeks. Dark controls were included, i.e. the same procedure was carried out except that the inoculated microconidia on human skin were treated with solvent and/or photosensitizer in the dark. In the light controls, the microconidia were treated with solvent (only) in the presence of light. The efficacy of the treatment was expressed as a relative frequency of complete inactivation (killing) of fungal growth detected at day 8 after spore inoculation. This was assessed microscopically with the use of a Zeiss Axiovert 25 (Germany). […] The treatment effect was followed for a period of several months. Every experiment contained 4 to 6 duplicates of all conditions and the experiments were repeated 3 times at least.
PDT of T. rubrum 17 hours after spore inoculation using the ex-vivo model, different concentrations of Sylsens B and a different pH (water medium). The numbers indicate the relative frequency of the fungicidal effect^1. Numbers between brackets give the number of tests performed.
The experiment with Sylsens B was repeated more extensively, for a longer period of time and with more samples. More specifically, the photodynamic efficacy of Sylsens B towards T. rubrum was tested at 17 (FIG. 2a), 48 (FIG. 2b) and 72 hours (FIG. 2c) after spore inoculation on human SC, at the following incubation pH values: Filled diamonds: pH 3.5, filled squares: pH 5.2 and filled triangles: pH 7.4.

Compound: C[n+]1ccc(-c2c3nc(c(-c4cc[n+](C)cc4)c4ccc([nH]4)c(-c4cc[n+](C)cc4)c4nc(c(-c5ccccc5)c5ccc2[nH]5)C=C4)C=C3)cc1.[Cl-].[Cl-].[Cl-] [Sylsens B, 5,10,15-tris(4-methylpyridinium)-20-phenyl-[21H,23H]-porphine trichloride]
- production of 1O2 [1]: substantially constant
- binding of Sylsens B to the fungus [2]: eliminated binding
- relative frequency of the fungicidal effect (T. rubrum; 0.5 μM, pH 3.5, illuminated, PDT 17 h after spore inoculation): 0 (6)
- relative frequency of the fungicidal effect (T. rubrum; 0.5 μM, pH 5.2, illuminated, PDT 17 h after spore inoculation): 0 (3)
- relative frequency of the fungicidal effect (T. rubrum; 0.5 μM, pH 7.4, illuminated, PDT 17 h after spore inoculation): 0 (6)
- relative frequency of the fungicidal effect (T. rubrum; 1 μM, pH 3.5, dark control, 17 h after spore inoculation): 0 (2)
- relative frequency of the fungicidal effect (T. rubrum; 1 μM, pH 3.5, illuminated, 17 h after spore inoculation): 0 (6)
- relative frequency of the fungicidal effect (T. rubrum; 1 μM, pH 5.2, dark control, 17 h after spore inoculation): 0 (2)
- relative frequency of the fungicidal effect (T. rubrum; 1 μM, pH 5.2, illuminated, 17 h after spore inoculation): 0 (3)
- relative frequency of the fungicidal effect (T. rubrum; 1 μM, pH 7.4, dark control, 17 h after spore inoculation): 0 (2)
- relative frequency of the fungicidal effect (T. rubrum; 1 μM, pH 7.4, illuminated, 17 h after spore inoculation): 0 (6)
- relative frequency of the fungicidal effect (T. rubrum; 5 μM, pH 3.5, dark control, 17 h after spore inoculation): 0 (2)
- relative frequency of the fungicidal effect (T. rubrum; 5 μM, pH 3.5, illuminated, 17 h after spore inoculation): 0.2 (10)
- relative frequency of the fungicidal effect (T. rubrum; 5 μM, pH 5.2, dark control, 17 h after spore inoculation): 0 (4)
- relative frequency of the fungicidal effect (T. rubrum; 5 μM, pH 5.2, illuminated, 17 h after spore inoculation): 0.43 (7)
- relative frequency of the fungicidal effect (T. rubrum; 5 μM, pH 7.4, dark control, 17 h after spore inoculation): 0 (6)
- relative frequency of the fungicidal effect (T. rubrum; 5 μM, pH 7.4, illuminated, 17 h after spore inoculation): 0.4 (12)
- relative frequency of the fungicidal effect (T. rubrum; 6 μM, pH 3.5, illuminated, 17 h after spore inoculation): 0.5 (2)
- relative frequency of the fungicidal effect (T. rubrum; 6 μM, pH 5.2, illuminated, 17 h after spore inoculation): 1 (4)
- relative frequency of the fungicidal effect (T. rubrum; 6 μM, pH 7.4, dark control, 17 h after spore inoculation): 0 (6)
- relative frequency of the fungicidal effect (T. rubrum; 6 μM, pH 7.4, illuminated, 17 h after spore inoculation): 0.2 (12)
- relative frequency of the fungicidal effect (T. rubrum; 7 μM, pH 5.2, illuminated, 17 h after spore inoculation): 1 (4)
- relative frequency of the fungicidal effect (T. rubrum; 8 μM, pH 3.5, illuminated, 17 h after spore inoculation): 0.75 (4)
- relative frequency of the fungicidal effect (T. rubrum; 8 μM, pH 5.2, illuminated, 17 h after spore inoculation): 1 (4)
- relative frequency of the fungicidal effect (T. rubrum; 8 μM, pH 7.4, dark control, 17 h after spore inoculation): 0 (6)
- relative frequency of the fungicidal effect (T. rubrum; 8 μM, pH 7.4, illuminated, 17 h after spore inoculation): 0.6 (12)
- relative frequency of the fungicidal effect (T. rubrum; 9 μM, pH 5.2, illuminated, 17 h after spore inoculation): 1 (4)
- relative frequency of the fungicidal effect (T. rubrum; 10 μM, pH 3.5, dark control, 17 h after spore inoculation): 0 (2)
- relative frequency of the fungicidal effect (T. rubrum; 10 μM, pH 3.5, illuminated, 17 h after spore inoculation): 0.8 (10)
- relative frequency of the fungicidal effect (T. rubrum; 10 μM, pH 5.2, dark control, 17 h after spore inoculation): 0 (4)
- relative frequency of the fungicidal effect (T. rubrum; 10 μM, pH 5.2, illuminated, 17 h after spore inoculation): 1 (9)
- relative frequency of the fungicidal effect (T. rubrum; 10 μM, pH 7.4, dark control, 17 h after spore inoculation): 0 (6)
- relative frequency of the fungicidal effect (T. rubrum; 10 μM, pH 7.4, illuminated, 17 h after spore inoculation): 0.6 (12)
- relative frequency of the fungicidal effect (T. rubrum; 15 μM, pH 3.5, illuminated, 17 h after spore inoculation): 1 (4)
- relative frequency of the fungicidal effect (T. rubrum; 15 μM, pH 5.2, illuminated, 17 h after spore inoculation): 1 (4)
- relative frequency of the fungicidal effect (T. rubrum; 15 μM, pH 7.4, dark control, 17 h after spore inoculation): 0.5 (6)
- relative frequency of the fungicidal effect (T. rubrum; 15 μM, pH 7.4, illuminated, 17 h after spore inoculation): 0.7 (12)
- relative frequency of the fungicidal effect (T. rubrum; 20 μM, pH 3.5, dark control, 17 h after spore inoculation): 0 (2)
- relative frequency of the fungicidal effect (T. rubrum; 20 μM, pH 3.5, illuminated, 17 h after spore inoculation): 1 (4)
- relative frequency of the fungicidal effect (T. rubrum; 20 μM, pH 5.2, dark control, 17 h after spore inoculation): 0 (2)
- relative frequency of the fungicidal effect (T. rubrum; 20 μM, pH 7.4, dark control, 17 h after spore inoculation): 0.3 (6)
- relative frequency of the fungicidal effect (T. rubrum; 20 μM, pH 7.4, illuminated, 17 h after spore inoculation): 0.6 (12)
- relative frequency of the fungicidal effect (T. rubrum; 30 μM, pH 3.5, dark control, 17 h after spore inoculation): 0.5 (2)
- relative frequency of the fungicidal effect (T. rubrum; 30 μM, pH 3.5, illuminated, 17 h after spore inoculation): 1 (4)
- relative frequency of the fungicidal effect (T. rubrum; 30 μM, pH 5.2, dark control, 17 h after spore inoculation): 1 (2)
- relative frequency of the fungicidal effect (T. rubrum; 30 μM, pH 5.2, illuminated, 17 h after spore inoculation): 1 (5)
- relative frequency of the fungicidal effect (T. rubrum; 30 μM, pH 7.4, dark control, 17 h after spore inoculation): 0.3 (6)
- relative frequency of the fungicidal effect (T. rubrum; 30 μM, pH 7.4, illuminated, 17 h after spore inoculation): 0.6 (12)
- relative frequency of the fungicidal effect (T. rubrum; 40 μM, pH 3.5, illuminated, 17 h after spore inoculation): 1 (4)
- relative frequency of the fungicidal effect (T. rubrum; 40 μM, pH 7.4, dark control, 17 h after spore inoculation): 0 (6)
- relative frequency of the fungicidal effect (T. rubrum; 40 μM, pH 7.4, illuminated, 17 h after spore inoculation): 1 (12)
- relative frequency of the fungicidal effect (T. rubrum; 50 μM, pH 3.5, dark control, 17 h after spore inoculation): 0.5 (2)
- relative frequency of the fungicidal effect (T. rubrum; 50 μM, pH 3.5, illuminated, 17 h after spore inoculation): 1 (10)
- relative frequency of the fungicidal effect (T. rubrum; 50 μM, pH 5.2, dark control, 17 h after spore inoculation): 1 (2)
- relative frequency of the fungicidal effect (T. rubrum; 50 μM, pH 5.2, illuminated, 17 h after spore inoculation): 1 (3)
- relative frequency of the fungicidal effect (T. rubrum; 50 μM, pH 7.4, dark control, 17 h after spore inoculation): 0.5 (6)
- relative frequency of the fungicidal effect (T. rubrum; 50 μM, pH 7.4, illuminated, 17 h after spore inoculation): 0.9 (12)
- relative frequency of the fungicidal effect (T. rubrum; 65 μM, pH 3.5, dark control, 17 h after spore inoculation): 1 (2)
- relative frequency of the fungicidal effect (T. rubrum; 65 μM, pH 3.5, illuminated, 17 h after spore inoculation): 1 (4)
- relative frequency of the fungicidal effect (T. rubrum; 65 μM, pH 7.4, dark control, 17 h after spore inoculation): 1 (6)
- relative frequency of the fungicidal effect (T. rubrum; 65 μM, pH 7.4, illuminated, 17 h after spore inoculation): 1 (12)
- relative frequency of the fungicidal effect (T. rubrum; 80 μM, pH 3.5, dark control, 17 h after spore inoculation): 0.5 (4)
- relative frequency of the fungicidal effect (T. rubrum; 80 μM, pH 3.5, illuminated, 17 h after spore inoculation): 1 (8)
- relative frequency of the fungicidal effect (T. rubrum; 80 μM, pH 5.2, dark control, 17 h after spore inoculation): 1 (2)
- relative frequency of the fungicidal effect (T. rubrum; 80 μM, pH 5.2, illuminated, 17 h after spore inoculation): 1 (3)
- relative frequency of the fungicidal effect (T. rubrum; 80 μM, pH 7.4, dark control, 17 h after spore inoculation): 1 (6)
- relative frequency of the fungicidal effect (T. rubrum; 80 μM, pH 7.4, illuminated, 17 h after spore inoculation): 1 (12)
- cfu in dark controls (T. rubrum; 17-hour stage after spore inoculation): 8 to 12 cfu
- cfu in dark controls (T. rubrum; 48-hour and 72 hour stage, concentrations higher than 80 μM): 5 to 8 cfu
- cfu in dark controls (T. rubrum; 48-hour and 72 hour stage, up to 80 μM Sylsens B): 8 to 12 cfu
- MIC (Minimum Inhibitory Concentration) (T. rubrum; pH 5.2, PDT 17 h after spore inoculation): 5 to 6 µM
- MIC (Minimum Inhibitory Concentration) (T. rubrum; pH 7.4, PDT 17 h after spore inoculation): ≧50 μM
